Measurements as given in patent US12102685B2, “Immodulator peptides covalently modified with small molecules” (priority 2020, dated 2024).
Marks after values point to notes of the source that are not given here. Peptide text beside a SMILES is read from it.

How the values were obtained:
STING = experiment: THP1-Dual monocyte reporter, STING readout (x4A); type: cell-based
Description: Immune modulation functions of immodulator peptides were measured using the monocyte reporter cell line THP1-Dual (Invivogen, San Diego, CA), which provides convenient readouts for STING and NF-kappa-B pathways. Optionally, succinic acid, cytokine and chemokine production were also measured. THP1-Dual cell line was obtained from Invivogen. Cells were grown in a T-75 flask in RPMI Medium containing 20% fetal bovine serum, blasticidin ([…]), zeocin ([…]) and penicillin-streptomycin at 37° C. in a humidified, 5% CO2 incubator. Cells ([…], 8,000 cells/well) were plated in a 96-well plate and incubated overnight at 37 °C in a humidified, 5% CO2 incubator. Next day, […] of compounds were added (quadruplicate wells). After 24 hour incubation with the compound, supernatants were harvested and stored at 4° C. prior to assay.
Each cell supernatant was assayed in quadruplicate. 20 uL of supernatant was used to measure NF-kappa-B (NFkB) and
STING activity using reagents QuantiBlu and QuantiLuc respectively, according to the manufacturer's recommendations (Invivogen, San Diego, CA). Succinic acid was measured by using a kit from Megazyme Inc (Cambridge, MA). Control value of activity was set to 100 in each assay. […] PAM3C=25 ng/ml PAM3CSK4 (TLR1/2 inducer); Poly(I:C)=10 ug/ml (TLR3 inducer); PAM2C=25 ng/ml PAM2CSK4 (TLR2/6 inducer); KIN14=4 uM KIN-1400 (RIG-I inducer); cytB=1 uM cytosporone B (Nur77 inducer); C-178=1 uM STING inhibitor; NFkBi=50 ug/ml NFkB inhibitor peptide; SB2021=10 uM p38MAPK inhibitor; *p<0.05, **p<0.01 vs IM3 control; #p<0.01 vs “no inducer” control; SUCC=succinic acid; nd=not done; Peptide was added to cells at 400 nM.
Peptides were added to cells at 400 nM. […]

[1] = NTA-metal-affinity ELISA (Experiment x2A); type: binding
Description: The NTA-metal-affinity ELISA assay was performed using 96-well NTA-metal-coated plates readily available from commercial sources such as Qiagen (Germantown, MD). The NTA was charged with ferrous or ferric iron, zinc, copper, calcium, vanadium, ruthenium, cobalt, titanium, manganese or other metals. 400 ng of immodulator peptide IM3N1 in PBS buffer was added per plate. After incubation at room temperature for 60 minutes, excess peptide was washed off and peptide was detected by ELISA using an anti-immodulator rabbit primary antibody (A2501) and horseradish peroxidase conjugated to a secondary anti-rabbit antibody (arbitrary units)*vs EDTA control: • EDTA (no metal): 0.047±0.001 • Fe2+ (Ferrous): 0.844±0.026 (p<0.001*) • Fe3+ (Ferric): 0.848±0.011 (p<0.001*) • Zn2+ (Zinc): 0.194±0.089 (p<0.05*) • Cu2+ (Copper): 0.229±0.086 (p<0.05*)

Molecule: N=C(N)NCCC[C@H](NC(=O)CNC(=O)[C@H](CCCCN)NC(=O)[C@H](CO)NC(=O)[C@@H]1CCCN1C(=O)[C@H](CCCNC(=N)N)NC(=O)[C@H](CS)NC(=O)[C@H](CCC(N)=O)NC(=O)[C@H](CCCCN)NC(=O)[C@H](CCCCN)NC(=O)[C@H](CCCCN)NC(=O)[C@H](Cc1ccc(O)cc1)NC(=O)[C@H](Cc1ccccc1)NC(=O)CNC(=O)[C@H](CCCCN)NC(=O)[C@@H](N)CCCCN)C(=O)N[C@@H](CCCCN)C(=O)N[C@@H](CCCNC(=N)N)C(=O)NCC(=O)N[C@@H](Cc1ccccc1)C(=O)N[C@@H](CS)C(=O)N[C@@H](Cc1c[nH]c2ccccc12)C(=O)O [IM3] (H-KKGFYKKKQCRPSKGRKRGFCW-OH; N-terminus and C-terminus assumed)
- STING (STING; peptide 400 nM + KIN1400 (= 100)): 100
- STING (STING; peptide 400 nM + KIN1400 + C-178 1 uM): 81.1**
- STING (STING; peptide 400 nM + KIN1400 + NFkBi 50 ug/ml): 105.0
- STING (STING; peptide 400 nM + KIN1400 + SB2021 10 uM): 75.6**
- STING (STING; peptide 400 nM + KIN1400 + cytB 1 uM): 87.5*
- STING (STING; peptide 400 nM + PAM2C (= 100)): 100
- STING (STING; peptide 400 nM + PAM2C + C-178 1 uM): 62.0**
- STING (STING; peptide 400 nM + PAM2C + NFkBi 50 ug/ml): 119.1*
- STING (STING; peptide 400 nM + PAM2C + SB2021 10 uM): 18.9**
- STING (STING; peptide 400 nM + PAM2C + cytB 1 uM): 96.5
- STING (STING; peptide 400 nM + PAM3C + C-178 1 uM): 566**
- STING (STING; peptide 400 nM + PAM3C + NFkBi 50 ug/ml): 1294**
- STING (STING; peptide 400 nM + PAM3C + SB2021 10 uM): 274**
- STING (STING; peptide 400 nM + PAM3C + cytB 1 uM): 1318**
- STING (STING; peptide 400 nM + PAM3C, control = 100): 1474
- STING (STING; peptide 400 nM, no inducer, control = 100): 91**

Molecule: RGVTEDYLRLETLVQKVVSKGFYKKKQCRPSKGRKRGFCW [IM3N1]
- peptide bound, ELISA ([1]; Cu2+ (Copper)): 0.229±0.086 arbitrary units
- peptide bound, ELISA ([1]; EDTA (no metal), 400 ng peptide): 0.047±0.001 arbitrary units
- peptide bound, ELISA ([1]; Fe2+ (Ferrous)): 0.844±0.026 arbitrary units
- peptide bound, ELISA ([1]; Fe3+ (Ferric)): 0.848±0.011 arbitrary units
- peptide bound, ELISA ([1]; Zn2+ (Zinc)): 0.194±0.089 arbitrary units
